These results are taken from patent US20230381142A1, “ANTILEISHMANIAL COMPOUNDS, COMPOSITIONS AND USE THEREOF” (TRUSTEES OF BOSTON UNIVERSITY, priority 2022, published 2023).

The subject of this experiment is L. donovani intracellular amastigotes in B10R cells. The experiment can be described thus: UCSD L. donovani infection assay (Assay Conditions D). In kind it is cell-based. The settings on record: B10R cells. How it is done:
(§1) Assay Conditions D: B10R cells (CVCL_0155) were seeded at 300 cells/well, and L. donovani WT promastigotes in stationary phase (7th day after passage) were added at 6,000 parasites/well (ratio of 20 parasites/cell). Both cells and parasites were seeded in DMEM High-Glucose medium (Gibco, cat. no. 11995065) containing 5% Fetal Bovine Serum (Sigma-Aldrich, cat. no. F2442) and 1% Penicillin-Streptomycin (Gibco, cat. no. 15140122). Cells and parasites were incubated in the presence of the compounds for 72 h at 37° C. and 5% C02. Plates were then fixed with 4% formaldehyde solution for at least 1 h, then washed with 1×PBS and stained with 5 μg/mL DAPI. Plates were read using an ImageXpress microscope (Molecular Devices) and analyzed by MetaXpress software (Molecular Devices) using a custom module optimized for this assay. […] Compounds were tested in a 10-point 2-fold serial dilution in 3 technical replicates, and 2 biological replicates. After 72 h, plates were fixed and stained with DAPI as described above. Images were acquired on an ImageXpress microscope, and analyzed using the MetaXpress custom module.
as §1, with “Compounds were obtained as 0.2 μmoles of dried film for primary single point screening. Each compound was diluted in DMSO to 10 μM final testing concentration. These compounds were tested in 2 biological replicates. The compounds were pre-spotted onto 384-well assay plates in single concentration.” for “Assay Conditions D:”, “CO2.” for “C02.”, “module. The DRCs were plotted, half-effective concentration (EC50) and half-cytotoxic concentration (CC50) were calculated using GraphPad Prism Software, version 6.05 (GraphPad Software, San Diego, CA).” for “module.”
For the compound `Cc1ccc(C2c3c(CC(C)C)n[nH]c3C(=O)N2c2ccc3ncnn3c2)cc1` (stereo not drawn) [BUCMD00156], the “L. donovani amastigotes EC75 (μM, B10R cells)” value (“L. donovani amastigotes EC75” for short) is over 10 µM. In the case of `CC(C)Cc1n[nH]c2c1C(C1CCCCC1)N(c1ccc3ncnn3c1)C2=O` (stereo not drawn) [BUCMD00157] it was over 10 µM; in that of `CC(C)Cc1n[nH]c2c1C(c1cccs1)N(c1ccc3ncnn3c1)C2=O` (stereo not drawn) [BUCMD00158], over 10 µM; in that of `COc1cccc(C2c3c(CC(C)C)n[nH]c3C(=O)N2c2ccc3ncnn3c2)c1` (stereo not drawn) [BUCMD00159], over 10 µM. The value for `CC(C)Cc1n[nH]c2c1C(c1ccc(F)cc1Br)N(c1ccc3ncnn3c1)C2=O` (stereo not drawn) [BUCMD00160] was over 10 µM. As to `CC(C)Cc1n[nH]c2c1C(c1cc(C(F)(F)F)ccc1Br)N(c1ccc3ncnn3c1)C2=O` (stereo not drawn) [BUCMD00161], the “L. donovani amastigotes EC75” value is over 10 µM. The value for `COc1cc(N2C(=O)c3[nH]nc(CC(C)C)c3C2c2ccc(F)cc2)ccn1` (stereo not drawn) [BUCMD00163] was over 10 µM; that for `COc1cc(N2C(=O)c3[nH]nc(CC(C)C)c3C2c2ccc(F)cc2)ccc1Br` (stereo not drawn) [BUCMD00164] was over 10 µM. In the case of `COc1cc(OC)cc(N2C(=O)c3[nH]nc(CC(C)C)c3C2c2ccc(F)cc2)c1` (stereo not drawn) [BUCMD00165] it was over 10 µM; in that of `Cc1cccnc1N1C(=O)c2[nH]nc(CC(C)C)c2C1c1ccc(F)cc1` (stereo not drawn) [BUCMD00166], over 10 µM. In the case of `Cc1cc(Br)cnc1N1C(=O)c2[nH]nc(CC(C)C)c2C1c1ccc(F)cc1` (stereo not drawn) [BUCMD00167] it was over 10 µM; in that of `Cc1cc(Cl)cnc1N1C(=O)c2[nH]nc(CC(C)C)c2C1c1ccc(F)cc1` (stereo not drawn) [BUCMD00168], over 10 µM; in that of `Cc1cc(N2C(=O)c3[nH]nc(CC(C)C)c3C2c2ccc(F)cc2)n(C)n1` (stereo not drawn) [BUCMD00169], over 10 µM. Consider `CC(C)Cc1n[nH]c2c1C(c1ccc(F)cc1)N(c1cc(C3CC3)[nH]n1)C2=O` (stereo not drawn) [BUCMD00170], for which the “L. donovani amastigotes EC75” value was over 10 µM. In the case of `CC(C)Cc1n[nH]c2c1C(c1ccc(F)cc1)N(c1cc(C(C)C)nn1C)C2=O` (stereo not drawn) [BUCMD00171] it was over 10 µM. The value for `CC(C)Cc1n[nH]c2c1C(c1ccc(F)cc1)N(c1cncc(Br)c1)C2=O` (stereo not drawn) [BUCMD00172] was over 10 µM; that for `Cc1ccnc(N2C(=O)c3[nH]nc(CC(C)C)c3C2c2ccc(F)cc2)c1` (stereo not drawn) [BUCMD00173] was over 10 µM; that for `Cc1ccc(N2C(=O)c3[nH]nc(CC(C)C)c3C2c2ccc(F)cc2)nc1` (stereo not drawn) [BUCMD00174] was over 10 µM. In the case of `Cc1cccc(N2C(=O)c3[nH]nc(CC(C)C)c3C2c2ccc(F)cc2)n1` (stereo not drawn) [BUCMD00175] it was over 10 µM. As for `COc1ccc(N2C(=O)c3[nH]nc(CC(C)C)c3C2c2ccc(Br)cc2OC)cn1` (stereo not drawn) [BUCMD00176], the “L. donovani amastigotes EC75” value was over 10 µM. For the compound `COc1ccc(OC)c(N2C(=O)c3[nH]nc(CC(C)C)c3C2c2ccc(OC)nc2)c1` (stereo not drawn) [BUCMD00177], the “L. donovani amastigotes EC75” value is over 10 µM.

Take `CCc1ccc(C2c3c(CC(C)C)n[nH]c3C(=O)N2c2ccc(F)c(OC)c2)cn1` (stereo not drawn) [BUCMD00178]: the “L. donovani amastigotes EC75” value was over 10 µM. As for `COc1cc(N2C(=O)c3[nH]nc(CC(C)C)c3C2c2c(C)nn(C)c2Cl)ccc1Br` (stereo not drawn) [BUCMD00179], the “L. donovani amastigotes EC75” value was over 10 µM. In the case of `COc1cc(N2C(=O)c3[nH]nc(CC(C)C)c3C2c2c(C)nn(C)c2Cl)ccc1F` (stereo not drawn) [BUCMD00180] it was over 10 µM; in that of `COc1cc(N2C(=O)c3[nH]nc(CC(C)C)c3C2c2cncc(Br)c2)ccn1` (stereo not drawn) [BUCMD00181], over 10 µM. The value for `COc1ccc(OC)c(N2C(=O)c3[nH]nc(CC(C)C)c3C2c2cncc(Br)c2)c1` (stereo not drawn) [BUCMD00182] was over 10 µM; that for `COc1cc(N2C(=O)c3[nH]nc(CC(C)C)c3C2c2cncc(Br)c2)ccc1F` (stereo not drawn) [BUCMD00183] was over 10 µM. In the case of `COc1cc(OC)cc(N2C(=O)c3[nH]nc(CC(C)C)c3C2c2cncc(Br)c2)c1` (stereo not drawn) [BUCMD00184] it was over 10 µM.

For the compound `COc1cccc(N2C(=O)c3[nH]nc(CC(C)C)c3C2c2cncc(Br)c2)c1` (stereo not drawn) [BUCMD00185], the “L. donovani amastigotes EC75” value is over 10 µM. As for `COc1cc(N2C(=O)c3[nH]nc(CC(C)C)c3C2c2ccc(F)cc2C)ccn1` (stereo not drawn) [BUCMD00186], the “L. donovani amastigotes EC75” value is over 10 µM. In the case of `COc1cc(N2C(=O)c3[nH]nc(CC(C)C)c3C2c2cc(Br)ccc2F)ccn1` (stereo not drawn) [BUCMD00187] it was over 10 µM.

For `COc1cc(N2C(=O)c3[nH]nc(CC(C)C)c3C2c2ccc(F)cc2F)ccn1` (stereo not drawn) [BUCMD00188], the “L. donovani amastigotes EC75” value is over 10 µM. In the case of `COc1ncccc1C1c2c(CC(C)C)n[nH]c2C(=O)N1c1ncccc1C` (stereo not drawn) [BUCMD00189] it was over 10 µM; in that of `COc1ncccc1C1c2c(CC(C)C)n[nH]c2C(=O)N1c1ncc(Br)cc1C` (stereo not drawn) [BUCMD00190], over 10 µM. Turning to `COc1ncccc1C1c2c(CC(C)C)n[nH]c2C(=O)N1c1ncc(Cl)cc1C` (stereo not drawn) [BUCMD00191], the “L. donovani amastigotes EC75” value was over 10 µM. In the case of `Cc1cc(N2C(=O)c3[nH]nc(CC(C)C)c3C2c2ccc(Br)cc2)n(C)n1` (stereo not drawn) [BUCMD00192] it was over 10 µM.

Consider `Cc1cc(N2C(=O)c3[nH]nc(CC(C)C)c3C2c2ccc(Cl)cc2)n(C)n1` (stereo not drawn) [BUCMD00193], for which the “L. donovani amastigotes EC75” value was over 10 µM. In the case of `COc1cc(C2c3c(CC(C)C)n[nH]c3C(=O)N2c2cc(C)nn2C)cc(OC)c1Br` (stereo not drawn) [BUCMD00194] it was over 10 µM; in that of `COc1cc(C2c3c(CC(C)C)n[nH]c3C(=O)N2c2cc(C3CC3)[nH]n2)cc(OC)c1Br` (stereo not drawn) [BUCMD00195], over 10 µM. Take `COc1ccc(OC)c(C2c3c(CC(C)C)n[nH]c3C(=O)N2c2cncc(Br)c2)c1` (stereo not drawn) [BUCMD00196]: the “L. donovani amastigotes EC75” value was over 10 µM. The value for `COc1ccc(OC)c(C2c3c(CC(C)C)n[nH]c3C(=O)N2c2cc(C)ccn2)c1` (stereo not drawn) [BUCMD00197] was over 10 µM; that for `COc1ccc(OC)c(C2c3c(CC(C)C)n[nH]c3C(=O)N2c2ccc(C)cn2)c1` (stereo not drawn) [BUCMD00198] was over 10 µM. The value for `COc1ccc(OC)c(C2c3c(CC(C)C)n[nH]c3C(=O)N2c2cccc(C)n2)c1` (stereo not drawn) [BUCMD00199] was over 10 µM; that for `Cc1ccc(N2C(=O)c3[nH]nc(CC(C)C)c3C2c2ccc(F)cc2Br)cn1` (stereo not drawn) [BUCMD00629] was 1.0 µM. The value for `Cc1ccc(N2C(=O)c3[nH]nc(CC(C)C)c3C2c2ccc(F)cc2F)cn1` (stereo not drawn) [BUCMD00630] was 7.3 µM; that for `Cc1cc(N2C(=O)c3[nH]nc(CC(C)C)c3C2c2ccc(F)cc2Br)ccn1` (stereo not drawn) [BUCMD00643] was 1.2 µM; that for `Cc1cc(F)ccc1C1c2c(CC(C)C)n[nH]c2C(=O)N1c1ccn(C)n1` (stereo not drawn) [BUCMD00652] was over 10 µM. `CC(C)Cc1n[nH]c2c1C(c1ccc(Br)cc1F)N(c1ccn(C)n1)C2=O` (stereo not drawn) [BUCMD00653]: the “L. donovani amastigotes EC75” value is over 10 µM. In the case of `CC(C)Cc1n[nH]c2c1C(c1ccc(F)cc1Cl)N(c1ccn(C)n1)C2=O` (stereo not drawn) [BUCMD00654] it was over 10 µM; in that of `CC(C)Cc1n[nH]c2c1C(c1ccc(Cl)cc1F)N(c1ccn(C)n1)C2=O` (stereo not drawn) [BUCMD00655], over 10 µM; in that of `CC(C)Cc1n[nH]c2c1C(c1ccccc1Cl)N(c1ccn(C)n1)C2=O` (stereo not drawn) [BUCMD00656], over 10 µM. Turning to `Cc1ccccc1C1c2c(CC(C)C)n[nH]c2C(=O)N1c1ccn(C)n1` (stereo not drawn) [BUCMD00657], the “L. donovani amastigotes EC75” value is over 10 µM. In the case of `CC(C)Cc1n[nH]c2c1C(c1ccc(F)cc1Br)N(c1ccn(C)n1)C2=O` (stereo not drawn) [BUCMD00658] it was over 10 µM. The value for `CC(C)Cc1n[nH]c2c1C(c1ccc(F)cc1F)N(c1ccn(C)n1)C2=O` (stereo not drawn) [BUCMD00659] was over 10 µM.
